From paper PMC7838189, “Natural podophyllotoxin analog 4DPG attenuates EMT and colorectal cancer progression via activation of checkpoint kinase 2” (Cell Death Discovery, 2021)

Assays:
Type in all cases: cell-based
HCT-116/5-FU-R cells [1] = assay: Matrigel invasion assay; settings: SiChk2 and PV1019 pre-treated conditions, 48 h
Text: (§1) To examine whether 4DPG-mediated repression of Vimentin and invasiveness is a Chk2-dependent process, we performed genetic silencing of endogenous Chk2 in the 5-FU-R cells using target-specific SiRNAs.
Fig. 3 Chk2-dependent role of 4DPG in modulating p53 and repressing Vimentin expression in 5-FU-R cells. A Immunocytochemistry results showing the Vimentin expression level in SW-620/5-FU-R cells treated/transfected with scramble, SiChk2, scramble plus 4DPG, SiChk2 plus 4DPG, vehicle, PV1019, 4DPG, and PV1019 plus 4DPG for 48 h. Scale bars: 50 µm. […] C Matrigel invasion assay results showing invaded HCT-116/5-FU-R and SW-620/5-FU-R cells following 48 h of transient transfection with GFP and GFP-Chk2 plasmid construct. Scale bars: 50 µm. D Quantification of the number of invaded cells per field from the above experimental conditions. n = 3, error bars, mean ± SD; *P < 0.05, ***P < 0.001. E Immunocytochemistry results displaying Vimentin expression levels in HCT-116/5-FU-R and SW-620/5-FU-R cells after 48 h of transient transfection with pCDNA3 and/or HA-Chk2 plasmid construct. Scale bars: 50 µm. F Immunoprecipitation with Vimentin or p53 followed by western blotting analysis of p53 in SW-620/5-FU-R cells treated with vehicle and/or 4DPG (300 nM) for 48 h. […]

SW-620/5-FU-R cells [2] = assay: Western blotting of Chk2 and EMT markers after 4DPG; settings: 48 h
Text: (§2) 4DPG, a podophyllotoxin class of natural product anticancer compound (Supplementary Fig. S2A) has been recently described by our research group for its potent antitumor and anti-metastatic properties against aggressive cancers[31],[32]. Further, 4DPG augments phosphorylation and activation of Chk2 (Thr68) leading to suppression of EMT and invasiveness of p53-defective cancer cells. To investigate the effect of 4DPG on phosphorylation and expression levels of Chk2 in HCT-116/5-FU-R, SW-620/5-FU-R, and HT-29/5-FU-R cells, we treated these cells for 48 h with increasing concentrations of the compound, and whole-cell lysates were subjected to western blotting analysis. […] To determine the effect of 4DPG on the invasion abilities of these 5-FU-R cells, we performed in situ fluorescent gelatin degradation assay following our pre-standardized protocol[31],[37]. In physiological conditions, this assay mimics the extracellular matrix degradation by aggressive tumor cells undergoing invasion–metastasis process.
(§3) Fig. 2 4DPG activates Chk2 and attenuates EMT in 5-FU-R CRC cells. A Western blotting analysis results portraying protein expression of p-Chk2 (Thr68) and Chk2 in HCT-116/5-FU-R and SW-620/5-FU-R cells in response to increasing concentrations of 4DPG, treated for 48 h. β-Actin expression was considered as endogenous loading control. B Densitometry analysis showing relative protein expression of western blot bands presented above. n = 3, error bars: mean ± SD; ***P < 0.001. C Western blots depicting protein expression of EMT markers in HCT-116/5-FU-R and SW-620/5-FU-R cells in response to increasing concentrations of 4DPG, treated for 48 h. β-Actin expression was considered as endogenous loading control. […] E Immunocytochemistry results displaying the protein expression levels of Vimentin in HCT-116/5-FU-R and SW-620/5-FU-R cells, treated with vehicle and/or 4DPG (300 nM) for 48 h. Scale bars: 50 µm. F In situ fluorescent gelatin degradation assay results showing the invadopodia/footprints of invaded SW-620/5-FU-R cells treated with vehicle and/or 4DPG at the indicated concentration for 48 h. Blue stains over the green background display DAPI staining of nuclei of cells. G Quantification of the area of degradation through Image J software. n = 3, error bars, mean ± SD; ***P < 0.001.
(§4) We adhered to the previously published protocol for western blotting. To sum up, cells were exposed to the respective treatments (mentioned in figure legends). Post-treatment, cells were lysed with cell lysis buffer, and cell lysates were collected after centrifugation. Bradford assay was performed to quantify the protein concentration. Equal amount of protein was taken from each sample to carry out the western blot analysis. SDS-PAGE was employed to separate the proteins that were later transferred onto PVDF membranes (Millipore, Billerica, MA). Next, the membranes were blocked with 5% skim milk and subsequently incubated with the specific primary antibodies (1:1000 dilution), either for 3 h at room temperature or overnight at 4 °C. Later, the blots were washed thoroughly with TBST and probed with the respective secondary antibodies (1:2000 dilution) coupled with horseradish peroxidase for 1 h. Following thorough washing, the membranes were visualized using enhanced chemiluminescence reagent (Millipore) and captured onto Biomax light film (The Eastman Kodak Co., Rochester, NY).

HCT-116/5-FU-R cells [3] = assay: as above; settings: 48 h
Text: as §2, §3, §4

SW-620/5-FU-R cells [4] = assay: Immunocytochemistry of Vimentin; settings: 48 h
Text: as §2, §1
Fig. 3 Chk2-dependent role of 4DPG in modulating p53 and repressing Vimentin expression in 5-FU-R cells. A Immunocytochemistry results showing the Vimentin expression level in SW-620/5-FU-R cells treated/transfected with scramble, SiChk2, scramble plus 4DPG, SiChk2 plus 4DPG, vehicle, PV1019, 4DPG, and PV1019 plus 4DPG for 48 h. Scale bars: 50 µm. […] C Matrigel invasion assay results showing invaded HCT-116/5-FU-R and SW-620/5-FU-R cells following 48 h of transient transfection with GFP and GFP-Chk2 plasmid construct. Scale bars: 50 µm. D Quantification of the number of invaded cells per field from the above experimental conditions. n = 3, error bars, mean ± SD; *P < 0.05, ***P < 0.001. E Immunocytochemistry results displaying Vimentin expression levels in HCT-116/5-FU-R and SW-620/5-FU-R cells after 48 h of transient transfection with pCDNA3 and/or HA-Chk2 plasmid construct. Scale bars: 50 µm. F Immunoprecipitation with Vimentin or p53 followed by western blotting analysis of p53 in SW-620/5-FU-R cells treated with vehicle and/or 4DPG (300 nM) for 48 h. G Cytosolic (left panel) and nuclear (right panel) extracts of SW-620/5-FU-R cells treated with vehicle and/or 4DPG (300 nM) for 48 h showing protein expression of Vimentin and p53. Tubulin and lamin expression was considered as endogenous loading controls for cytosolic and nuclear fractions, respectively.
We followed the standard protocol with some modifications for immunocytochemistry[56],[58]. In brief, cells, at a density of 4 × 10^5 cells/well, were seeded over the sterile coverslips placed in six-well plates. Following the respective treatment, cells were washed thrice with PBS. Next, the cells were fixed with 4% paraformaldehyde (pH = 7.4) for 15 min, permeabilized with 0.3% Triton X-100 for 10 min, and then blocked with 1% goat serum for 30 min. Consequently, the cells were incubated with anti-Vimentin antibody overnight at 4 °C, at a dilution of 1:100, followed by washing with PBST and further incubation with secondary anti-rabbit Alexa Fluor 488 (1:750 dilution). After subsequent washing and mounting, the images were captured at ×20 magnification under Floid Cell Imaging Station (Invitrogen).

[5] = increasing concentrations, immunoblot

In the case of `COc1cc([C@@H]2c3cc4c(cc3C[C@H]3COC(=O)[C@@H]32)OCO4)cc(OC)c1O[C@@H]1O[C@H](CO)[C@@H](O)[C@H](O)[C@H]1O` [4DPG, 4′-demethyl-deoxypodophyllotoxin glucoside], the “effect of 4DPG to block invasion abilities” value (HCT-116/5-FU-R cells [1]) is reported as “distinctly reduced”, the “increase in p-Chk2 (Thr68) level” value (SW-620/5-FU-R cells [2]; 300 nM (sub-toxic), vs vehicle) is reported as 11.2 fold and the “expression of Chk2 (total)” value (SW-620/5-FU-R cells [2]; vs vehicle) is reported as “did not alter significantly”. For the same compound, the “amplification of E-cadherin” value (SW-620/5-FU-R cells [2]; increasing concentrations) was ≤ 10.2 fold, the “amplification of TIMP-1” value (SW-620/5-FU-R cells [2]; increasing concentrations) was ≤ 7.2 fold and the “p-Vimentin (ser38), Vimentin, Twist1 and MMP-2 expression” value (SW-620/5-FU-R cells [2]; [5]) was “remarkable downregulation”. For the same compound, the “increase in p-Chk2 (Thr68) level” value (HCT-116/5-FU-R cells [3]; 300 nM (sub-toxic), vs vehicle) was 12 fold, the “expression of Chk2 (total)” value (HCT-116/5-FU-R cells [3]; vs vehicle) was “did not alter significantly” and the “amplification of E-cadherin” value (HCT-116/5-FU-R cells [3]; increasing concentrations) was ≤ 12.8 fold. The “amplification of TIMP-1” value (HCT-116/5-FU-R cells [3]; increasing concentrations) was “up to 12.5 fold”, the “p-Vimentin (ser38), Vimentin, Twist1 and MMP-2 expression” value (HCT-116/5-FU-R cells [3]; [5]) was “remarkable downregulation” and the “Vimentin expression level (immunocytochemistry)” value (SW-620/5-FU-R cells [4]; 300 nM) was “considerable decrease”. The “inhibition of Vimentin level by 4DPG” value (SW-620/5-FU-R cells [4]; PV1019 plus 4DPG) was “negligible inhibition”, the “inhibition of Vimentin level by 4DPG” value (SW-620/5-FU-R cells [4]; SiChk2 plus 4DPG (Chk2-silenced)) was “mild inhibition” and the “Vimentin level (immunocytochemistry)” value (SW-620/5-FU-R cells [4]; scramble plus 4DPG) was “substantial reduction”.
